Results taken from US4898870A, “Pyrroloquinoline quinone compounds useful as an enzyme inhibitor” (Sogo Pharmaceutical Company Limited, priority 1986, dated 1990).
Several values for one entry are separate records, joined by “and”; a condition that tells them apart may be missing. Equal entries are not always repeated. Structures can show the parent of a compound that is named as a salt. Each block holds one molecule with its values, some of them ahead of it.

Columns and labels:
Assay type in all cases: biochemical
[1] = molecular target: T1, human placental aldose reductase (Homo sapiens, UniProt P15121); assay: Inhibition of human placental aldose reductase; conditions: for IC50: human placenta enzyme; for IC100: read-out: concentration inhibiting the activity by 100%
T1 construct: An enzyme solution was prepared from human placenta; from tissue; host or cells: human placenta
Description: (§1) Specifically reaction was started by adding dl-glyceraldehyde as a substrate to a reaction solution containing rat lens homogenate, Li2 SO4, NADPH2 and inhibitor, and the enzyme activity was measured by the decrease of the optical absorption of NADPH2 (optical density: OD) at 340 nm for 5 min. The solution with no addition of the substrate was used for the blank OD. The inhibiting ratio for the aldose reductase reaction by the inhibitor was determined by the following equation: [formula]
The determination of enzyme activity was same as in Test Example 1 except enzyme source was human placenta.
(§2) To a reaction solution containing the chick lens homogenate, Li2 SO4, NADPH2 and an inhibitor, was added dlglyceraldehyde as substrate to start the reaction, and the enzymatic activity was determined by measuring the decrease in optical density (OD) of NADPH2 at 340 nm after five minutes. A solution with no substrate added was used for the blank test. The inhibition rate against the aldose reductase reaction was calculated from the following equation: [formula]
An enzyme solution was prepared from human placenta, and the inhibitory action of PQQ·2K against human placental aldose reductase was measured in the same way as in Test Example 4.
An enzyme solution was prepared from human placenta, and the inhibitory action of PQQ·3Me against human placental aldose reductase was measured in the same way as in Test Example 4.
An enzyme solution was prepared from human placenta, and the inhibitory action of PQQ·2Me.Et against human placental aldose reductase was measured in the same way as in Test Example 4.

[2] = molecular target: T2, rat lens aldose reductase (Rattus norvegicus, UniProt P07943); assay: Inhibition of rat lens aldose reductase (NADPH2 OD decrease at 340 nm); conditions: for IC50: rat lens homogenate, substrate dl-glyceraldehyde; for inhibition at 10 µM: inhibitor 10^-5 M/reaction soln.; for inhibition at 1 µM: inhibitor 10^-6 M/reaction soln.; for IC100: rat lens, read-out: concentration inhibiting the activity by 100%
T2 construct: A homogenate of rat lens was used; from tissue; host or cells: rat lens (crude homogenate; in later tests the 3,000 rpm supernatant)
Description: A homogenate of rat lens was used and the activity of aldose reductase was measured by the method of Kinoshita, et. al. (Kinoshita J. H., et al, Metabolism, 28, 462-469, (1979)).
as §1, §2
A homogenate of rat lens was centrifuged for four minutes at 3,000 rpm under cooling, the supernatant was collected as an enzyme solution, and the inhibitory action of PQQ·H2 against aldose reductase was measured in the same way as in Test Example 4.
An enzyme solution was prepared from rat lens in the same manner as in Test Example 10, and the inhibitory action of PQQ·3Me against rat lens aldose reductase was measured in the same way as in Test Example 4.

[3] = molecular target: T3, bovine lens aldose reductase (Bos taurus, UniProt P16116); assay: Inhibition of bovine lens aldose reductase; conditions: for IC50: bovine lens enzyme; for IC100: bovine lens, read-out: concentration inhibiting the activity by 100%; for inhibition at 4 µM: inhibitor 4 × 10^-6 M/reaction soln.; for inhibition at 6 µM: inhibitor 6 × 10^-6 M/reaction soln.; for inhibition at 8 µM: inhibitor 8 × 10^-6 M/reaction soln.; for inhibition at 10 µM: inhibitor 10^-5 M/reaction soln.; for inhibition at 1 µM: inhibitor 10^-6 M/reaction soln.; for inhibition at 0.1 µM: inhibitor 10^-7 M/reaction soln.
T3 construct: A homogenate of bovine lens was centrifuged for ten minutes at 20,000 rpm under cooling; from tissue; host or cells: bovine lens (20,000 rpm supernatant of homogenate)
Description: as §1
The determination of enzyme activity was same as in Test Example 1 except enzyme source was bovine lens.
as §2
A homogenate of bovine lens was centrifuged for ten minutes at 20,000 rpm under cooling, the supernatant was collected as an enzyme solution, and the inhibitory action of PQQ against aldose reductase was measured in the same way as in Test Example 4.
A homogenate of bovine lens was centrifuged for ten minutes at 20,000 rpm under cooling, the supernatant was collected as an enzyme solution, and the inhibitory action of PQQ·H2 against bovine lens aldose reductase was measured in the same way as in Test Example 4.
An enzyme solution was prepared from chick lens in the same manner as in Test Example 9, and the inhibitory action of PQQ·3Me against bovine lens aldose reductase was measured in the same way as in Test Example 4.

[4] = tested on: chick lens aldose reductase; assay: Inhibition of chick lens aldose reductase; conditions: for concentration inhibiting the activity by 100%: chick lens; for IC50: chick lens homogenate, read-out: concentration inhibiting the aldose reductase activity by 50%
Description: The activity of aldose reductase was measured according to the method of Kinoshita et al. [Metabolism, 28, 462-469 (1979)] using a homogenate of chick lens.
as §2
An enzyme solution was prepared from chick lens in the same manner as in Test Example 4, and the inhibitory action of PQQ·H2 against aldose reductase was measured in the same way as in Test Example 4.
An enzyme solution was prepared from chick lens in the same manner as in Test Example 4, and the inhibitory action of PQQ·3Me against aldose reductase was measured in the same way as in Test Example 4.

[5] = inhibitor 2 × 10^-6 M/reaction soln., read-out: Inhibition Rate
[6] = inhibitor 4 × 10^-6 M/reaction soln., read-out: Inhibition Rate
[7] = inhibitor 10^-5 M/reaction soln.
[8] = inhibitor 10^-6 M/reaction soln.
[9] = inhibitor 10^-4 M/reaction soln., read-out: Inhibition Rate
[10] = inhibitor 10^-7 M/reaction soln.

IC50 [1]: 1920 nM and 1900 nM | IC100 ([1]; human placenta): 4 µM | inhibition at 2 µM [1, 5]: 51.4% | inhibition at 3 µM ([1]; inhibitor 3 × 10^-6 M/reaction soln., read-out: Inhibition Rate): 83.3% | inhibition at 4 µM [1, 6]: 100% | inhibition at 0.9 µM ([1]; inhibitor 9 × 10^-7 M/reaction soln., read-out: Inhibition Rate): 8.3% | inhibition at 1 µM ([1]; inhibitor 10^-6 M/reaction soln., read-out: Inhibition Rate): 26.9% | IC50 [2]: 2000 nM
Molecule: O=C(O)c1cc(C(=O)O)c2c(n1)C(=O)C(=O)c1cc(C(=O)O)[nH]c1-2 [PQQ.2K, PQQ dipotassium salt]

IC50 [1]: 390 nM | IC100 ([1]; human placenta): 2.5 µM | inhibition at 0.2 µM ([1]; inhibitor 2 × 10^-7 M/reaction soln., read-out: Inhibition Rate): 15% | inhibition at 2.5 µM ([1]; inhibitor 2.5 × 10^-6 M/reaction soln., read-out: Inhibition Rate): 100% | inhibition at 0.3 µM ([1]; inhibitor 3 × 10^-7 M/reaction soln., read-out: Inhibition Rate): 34.4% | inhibition at 0.4 µM ([1]; inhibitor 4 × 10^-7 M/reaction soln., read-out: Inhibition Rate): 50.6% | inhibition at 5 µM ([1]; inhibitor 5 × 10^-6 M/reaction soln., read-out: Inhibition Rate): 100% | inhibition at 0.5 µM ([1]; inhibitor 5 × 10^-7 M/reaction soln., read-out: Inhibition Rate): 63.9% | inhibition at 0.08 µM ([1]; inhibitor 8 × 10^-8 M/reaction soln., read-out: Inhibition Rate): 1.7% | inhibition at 0.1 µM ([1]; inhibitor 10^-7 M/reaction soln., read-out: Inhibition Rate): 10% | concentrations at which effective ([3]; bovine lens (Table 13)): ≥ 10^-6 M | IC50 [3]: 4200 nM | IC100 [3]: 6 µM | inhibition at 2 µM [3, 5]: 22.6% | inhibition at 4 µM ([3]; read-out: Inhibition Rate): 45.8% | inhibition at 6 µM ([3]; read-out: Inhibition Rate): 100% | inhibition at 8 µM ([3]; read-out: Inhibition Rate): 100% | inhibition at 10 µM ([3]; read-out: Inhibition Rate): 100% | inhibition at 1 µM ([3]; read-out: Inhibition Rate): 10% | inhibition at 0.1 µM ([3]; read-out: Inhibition Rate): 0% | concentration inhibiting the activity by 100% [4]: 8 µM | IC50 [4]: 3000 nM | Inhibition Rate ([4]; inhibitor 2 × 10^-6 M/reaction soln.): 30.0% | Inhibition Rate ([4]; inhibitor 4 × 10^-6 M/reaction soln.): 77.1% | Inhibition Rate ([4]; inhibitor 6 × 10^-6 M/reaction soln.): 87.1% | Inhibition Rate ([4]; inhibitor 8 × 10^-6 M/reaction soln.): 100% | Inhibition Rate [4, 7]: 100% | Inhibition Rate [4, 8]: 0% | inhibition at 2 µM [2, 5]: 3.3% | inhibition at 4 µM [2, 6]: 23.5% | inhibition at 6 µM ([2]; inhibitor 6 × 10^-6 M/reaction soln., read-out: Inhibition Rate): 54.4% | inhibition at 8 µM ([2]; inhibitor 8 × 10^-6 M/reaction soln., read-out: Inhibition Rate): 98.9% | inhibition at 100 µM [2, 9]: 100% | inhibition at 10 µM ([2]; read-out: Inhibition Rate): 100% | inhibition at 1 µM ([2]; read-out: Inhibition Rate): 0% | IC50 [2]: 5800 nM | IC100 [2]: 10 µM
Molecule: COC(=O)c1cc(C(=O)OC)c2c(n1)C(=O)C(=O)c1cc(C(=O)OC)[nH]c1-2 [PQQ.3Me, PQQ trimethyl ester]

IC50 [3]: 5000 nM | IC100 [3]: 8 µM | inhibition at 4 µM ([3]; read-out: Inhibition Rate): 27.8% | inhibition at 6 µM ([3]; read-out: Inhibition Rate): 89.9% | inhibition at 8 µM ([3]; read-out: Inhibition Rate): 100% | inhibition at 100 µM [3, 9]: 100% | inhibition at 10 µM ([3]; read-out: Inhibition Rate): 100% | inhibition at 1 µM ([3]; read-out: Inhibition Rate): 0% | inhibition at 0.1 µM ([3]; read-out: Inhibition Rate): 0% | concentration inhibiting the activity by 100% [4]: 60 µM | IC50 [4]: 6000 nM | Inhibition Rate ([4]; inhibitor 2 × 10^-5 M/reaction soln.): 68.4% | Inhibition Rate ([4]; inhibitor 4 × 10^-5 M/reaction soln.): 92.8% | Inhibition Rate ([4]; inhibitor 6 × 10^-5 M/reaction soln.): 100% | Inhibition Rate ([4]; inhibitor 8 × 10^-5 M/reaction soln.): 100% | Inhibition Rate ([4]; inhibitor 10^-4 M/reaction soln.): 100% | Inhibition Rate [4, 7]: 62.1% | Inhibition Rate [4, 8]: 31.8% | Inhibition Rate [4, 10]: 0% | inhibition at 20 µM ([2]; inhibitor 2 × 10^-5 M/reaction soln., read-out: Inhibition Rate): 100% | inhibition at 10 µM ([2]; read-out: Inhibition Rate): 59.5% | inhibition at 1 µM ([2]; read-out: Inhibition Rate): 15.1% | Inhibition Rate ([2]; inhibitor concentration not printed (first line of Table 11)): 0% | IC50 [2]: 8500 nM | IC100 [2]: 20 µM
Molecule: O=C(O)c1cc(C(=O)O)c2c(n1)c(O)c(O)c1cc(C(=O)O)[nH]c12 [PQQ.H2, PQQ reduced form]

concentration inhibiting the activity by 100% ([1]; human placenta): 2.5 µM | IC50 [1]: 420 nM | Inhibition Rate ([1]; inhibitor 1.25 × 10^-6 M/reaction soln.): 97.1% | Inhibition Rate ([1]; inhibitor 2 × 10^-7 M/reaction soln.): 17.6% | Inhibition Rate ([1]; inhibitor 2.5 × 10^-6 M/reaction soln.): 100% | Inhibition Rate ([1]; inhibitor 3 × 10^-7 M/reaction soln.): 29.3% | Inhibition Rate ([1]; inhibitor 5 × 10^-7 M/reaction soln.): 59.0% | Inhibition Rate [1, 8]: 91.2% | Inhibition Rate [1, 10]: 0%
Molecule: PQQ dimethyl ethyl ester [PQQ.2Me.Et]
